Test results published in patent US5929074A, “Pyridazinone derivatives with pharmaceutical activity” (Nissan Chemical Industries, Ltd., priority 1993, dated 1999).
Like-named read-outs stand apart in the source and are kept apart here.

Legend:
[1] = test system: anaphylactic bronchoconstriction mediated by endogeneously liberated SRS-A; assay: Effect on anaphylactic bronchoconstriction mediated by endogeneously liberated SRS-A in passively sensitized guinea-pig; type: in vivo; settings: 30 mg/kg, orally 2 hours before EA challenge
Method: Effect on anaphylactic bronchoconstriction mediated by endogeneously liberated SRS-A in passively sensitized guinea-pig
Male guinea-pigs (350-450 g) were passively sensitized with intravenous (i.v.) injection of 0.125 ml rabbit anti-EA (egg albumin) serum (Capple Laboratories) 1 to 2 days preceding the experiment. Antigen-induced anaphylactic bronchoconstrictions mediated by endogeneously liberated SRS-A were measured by modified method of Konzett and Rossler (Arch. Exp. Path. Pharmak., 195, 71, 1940). Sensitized quinea-pigs were anaesthetized with intraperitoneal injection of urethane (1.5 g/kg). The right jugular vein was cannulated for the administration of the all agents and trachea was cannulated to record total pulmonary resistance. Guinea-pigs were artificially ventilated by a small animal respirator (Shinano, Model SN-480-7) set at a stroke volume of 4.5 ml and a rate of 50 breaths per min. The change in pulmonary resistance was measured with a pressure transducer (Nihon Kohden, Model TP-602T) connected to a T-tube on the tracheal cannula. The percentage of the maximum bronchoconstriction obtained by clamping off the trachea. Following surgical preparation, the animals were pretreated with indomethacin (2 mg/kg, 10 min), pyrilamine (2 mg/kg, 6 min) and propranolol (0.1 mg/kg, 5 min) prior to the EA challenge (0.2 mg/kg). All test compounds were administered orally 2 hours before the EA challenge. Inhibition (%) of broncho-constriction was determined as follows: Inhibition (%)=(1.0-% maximum bronchoconstriction in test/% maximum bronchoconstriction in control)×100. The maximum bronchoconstriction was 62±6% (Mean±S.E.M; n=6) and the number of test animals was 5-6.

platelet = assay: Anti-platelet aggregation effect in rabbits (ADP-induced); type: cell-based, rabbit; settings: rabbit PRP, ADP 5 to 10 μM, 37° C., read-out: IC50 (concentration at which aggregation of control sample was 50% inhibited)
Method: Anti-platelet aggregation effect in rabbits
Blood was collected from the abdominal artery of Japanese white male rabbits (weight: 1.8 to 2.5 kg) into a syringe containing 1/10 volume 3.8% sodium citrate. The blood thus obtained was subjected to a centrifugation at 200×g for 7 minutes at room temperature to obtain platelet rich plasma (PRP). Furthermore, the residue was subjected to a centrifugation at 2000×g for 10 minutes to obtain platelet poor plasma (PPP). The measurement was effected by diluting PRP with PPP to 300,000/mm^3. PRP and PPP were placed in a cuvette, and the measurement range of transmittance was adjusted to 0% in the case of PRP and to 100% in the case of PPP. Thereafter, a test sample drug dissolved in 100% dimethylsulfoxide (DMSO) was added to PRP (the final concentration of DMSO: 0.25%). After incubation was effected at 37° C. at 900 rpm for 2 minutes, an aggregating agent was added to record an aggregation curve. The anti-platelet aggregation effect of the test sample drug was expressed by a concentration (IC50 : μM) at which the aggregation of control sample was 50% inhibited. The aggregating agent ADP was used at the minimum concentration (5 to 10 μM) which caused the maximum aggregation. The measurement of platelet aggregation was carried out by using NBS HEMA TRACER 601.

guinea-pig trachea [2] = assay: Bronchodilating effect in vitro, Method 1-2: relaxation of guinea-pig trachea strips (no LTD4 contraction); type: cell-based; settings: Cavia porcellus; Method 1-2; trachea conditioned with 1 μM isoproterenol, no LTD4; DMSO 0.2 v/v%; read-out: EC50 (concentration to achieve 50% relaxation relative to relaxation by 1 mM aminophylline)
Method: (§1) A test sample drug was dissolved in 100% dimethylsulfoxide (DMSO, Wako Junyaku) and diluted for use. Leukotriene D4 (LTD4, Ultrafine) and isoproterenol (Isoproterenol, Sigma) were diluted with distilled water. Indomethacin (Indo, Sigma) was dissolved in 100% ethanol (EtOH, Komune Kagaku). Aminophylline (AP, Sigma), histamine dihydrochloride (His, Wako Junyaku) was dissolved in distilled water. The final concentrations of DMSO and EtOH in a bath were made not higher than 0.25% v/v and not higher than 0.1% v/v, respectively. Method 1:1:
(§2) A guinea-pig of 300-450 g was exsanguinated, and the trachea was taken out. After removing fat and connective tissues, it was cut and divided into 2 to 3 spiral strips, each having a width of about 2 mm and containing 4 smooth muscle tissues. Each specimen thus prepared was suspended in an organ bath of 8 ml containing a modified Tyrode solution aerated with 95% O2 +5% CO2 at 37° C., and a load of 1 g was applied thereto. The relaxation of the muscle was recorded by a pen recorder (Yokogawa Hokushin Electric, type 3066) by means of an isotonic transducer (Nihon Kohden, TD-112S).
The same measuring method as method 1-1 was employed. The specimen was allowed to stand for from 60 to 90 minutes and then relaxed by an addition of 1 μM of isopreterenol. The specimen was washed, and this operation was repeated at an interval of from 30 to 40 minutes until a constant relaxation reaction was reached. Then, a test sample drug was accumulately applied to relax the specimen. Finally, 1 mM of AP was added to achieve the maximum relaxation reaction. The result was expressed by relaxation percent relative to the relaxation by AP which was rated 100%, and a concentration to achieve 50% relaxation (EC50, μM) was obtained. The final concentration of DMSO in the bath was adjusted to be 0.2 v/v%. As a control drug, AP was used.

guinea-pig trachea [3] = assay: Bronchodilating effect in vitro, Method 1-1: relaxation of LTD4-contracted guinea-pig trachea strips; type: cell-based; settings: Cavia porcellus, Method 1-1; LTD4 (30 nM) contracted trachea, indomethacin 5 μM; read-out: EC50 (concentration to achieve 50% relaxation relative to relaxation by 1 mM aminophylline)
Method: as §1, §2
The composition of the modified Tyrode solution was as follows (mM):
The specimen was allowed to stand for 50-60 minutes, and was contracted with histamine dihydrochloride (100 μM). After the reaction became constant, it was washed and allowed to stand for 20-30 minutes. Indomethacin (5 μM) was added thereto, and after incubation for 30 minutes, the specimen was contracted by adding LTD4 (30 nM). After the reaction-became stable, a test sample drug was accumulatively administered. Finally, AP (1 mM) was added to achieve the maximum relaxation reaction. The result was expressed by relaxation percent relative to the relaxation by AP which was rated 100%, and a concentration to achieve 50% relaxation (EC50, μM) was measured. As a control drug, AP was used.

[4] = Oryctolagus cuniculus, Platelet

Compound	EC50 (guinea-pig trachea [2]) [nM]	EC50 (guinea-pig trachea [3]) [µM]	also measured
COc1ccc(CNc2cn[nH]c(=O)c2Cl)cc1OCC(=O)N1CCN(Cc2ccccc2)CC1 [Compound 37]			Inhibition of broncho-constriction [1]: 54%
COc1ccc(CNc2cn[nH]c(=O)c2Br)cc1OCCN1CCN(Cc2ccc(F)cc2)CC1 [Compound 14]			IC50 (platelet): 3.5 µM
CCOc1n[nH]c(=O)c(Cl)c1NCc1ccc(OC)c(OCCCN2CCN(Cc3ccc4ccccc4n3)CC2)c1 [Compound 71]	250		
COc1ccc(CNc2cn[nH]c(=O)c2Cl)cc1OCC(=O)NCc1cccnc1 [Compound 31]		6.9	
CCOc1n[nH]c(=O)c(Cl)c1NCc1ccc(OC)c(OCCN2CCN(Cc3ccc(F)cc3)CC2)c1 [Compound 65]	360		
COc1ccc(CNc2cn[nH]c(=O)c2Br)cc1OCCN1CCN(Cc2ccccc2)CC1 [Compound 6]			IC50 (platelet): 3.9 µM
CCOc1n[nH]c(=O)c(Cl)c1NCc1ccc(OC)c(OCC(C)(C)C(=O)N2CCN(Cc3ccc(F)cc3)CC2)c1 [Compound 69]	430		
COc1ccc(CNc2cn[nH]c(=O)c2Cl)cc1OCC(=O)N1CCN(Cc2cccnc2)CC1 [Compound 35]		6.6	
COc1ccc(CNc2cn[nH]c(=O)c2Cl)cc1OCC(=O)N1CCN(Cc2ccc3ccccc3n2)CC1 [Compound 61]	310		
Cn1c(=O)c2[nH]cnc2n(C)c1=O [Aminophylline, reference compound]	37000	178	
COc1ccc(CNc2cn[nH]c(=O)c2Cl)cc1OC(C)CN1CCN(Cc2ccc(F)cc2)CC1 (stereo not drawn) [Compound 55]		7.3	
COc1ccc(CNc2cn[nH]c(=O)c2Br)cc1OCCN1CCN(Cc2ccc(F)cc2)CC1 [Compound 13]		0.45	IC50 (platelet; [4]): 2.9 µM
CCOc1n[nH]c(=O)c(Cl)c1NCc1ccc(OC)c(OCCN2CCC(Cc3ccccc3)CC2)c1 [Compound 75]	400		
COc1ccc(CNc2cn[nH]c(=O)c2Cl)cc1OCCN1CCN(Cc2ccccc2)CC1 [Compound 4]		1.7	IC50 (platelet; [4]): 5.2 µM
COc1ccc(CNc2c(OC(C)C)n[nH]c(=O)c2Cl)cc1OCC(=O)N1CCN(Cc2ccc(N)cc2)CC1 [Compound 78, 4-Chloro-5-[3-(4-(4-aminobenzyl)-piperazin-1-yl)-carbonylmethoxy-4-methoxybenzylamino]-6-isopropoxy-3(2H)-pyridazinone]	14		inhibition in vivo at 30 mg/kg ([1]; Cavia porcellus, po, 2 h, read-out: Inhibition of broncho-constriction): 54%
COc1ccc(CNc2cn[nH]c(=O)c2Cl)cc1OCC(O)CN1CCN(Cc2ccc(F)cc2)CC1 (stereo not drawn) [Compound 53]		3.1	
COc1ccc(CNc2cn[nH]c(=O)c2Cl)cc1OCCN1CCN(Cc2ccc(F)cc2)CC1 [Compound 16]	340		IC50 (platelet): 5.2 µM
COc1ccc(CNc2cn[nH]c(=O)c2Cl)cc1OCCN1CCN(Cc2ccc(F)cc2)CC1 [Compound 15]		0.48	IC50 (platelet; [4]): 4.5 µM
